# Assay results from ChEMBL document CHEMBL5291721, “A preclinical secondary pharmacology resource illuminates target-adverse drug reaction associations of marketed drugs” (Nat Commun, 2023).
# Assays:
# [1] = target: Acetylcholinesterase (Homo sapiens, UniProt P22303); assay type: functional
# [2] = target: D(1A) dopamine receptor (Homo sapiens, UniProt P21728)
# [3] = target: Prothrombin (Homo sapiens, UniProt P00734); assay type: functional
# [4] = target: T1, 5-hydroxytryptamine receptor 1A (Homo sapiens, UniProt P08908)
# T1 sequence (P08908 whole entry): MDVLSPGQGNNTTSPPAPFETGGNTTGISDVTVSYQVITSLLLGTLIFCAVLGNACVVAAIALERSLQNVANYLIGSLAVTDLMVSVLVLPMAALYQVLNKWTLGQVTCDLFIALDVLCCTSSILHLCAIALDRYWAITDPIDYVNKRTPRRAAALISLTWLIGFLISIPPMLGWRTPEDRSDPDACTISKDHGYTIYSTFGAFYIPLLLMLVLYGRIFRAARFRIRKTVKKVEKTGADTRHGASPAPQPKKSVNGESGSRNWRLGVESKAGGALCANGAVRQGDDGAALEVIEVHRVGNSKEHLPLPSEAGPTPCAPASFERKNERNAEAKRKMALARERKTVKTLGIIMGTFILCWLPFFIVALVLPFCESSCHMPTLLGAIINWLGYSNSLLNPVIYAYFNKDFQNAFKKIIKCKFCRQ
# [5] = target: Mu-type opioid receptor (Homo sapiens, UniProt P35372)
# Sequence of Mu-type opioid receptor (P35372 whole entry): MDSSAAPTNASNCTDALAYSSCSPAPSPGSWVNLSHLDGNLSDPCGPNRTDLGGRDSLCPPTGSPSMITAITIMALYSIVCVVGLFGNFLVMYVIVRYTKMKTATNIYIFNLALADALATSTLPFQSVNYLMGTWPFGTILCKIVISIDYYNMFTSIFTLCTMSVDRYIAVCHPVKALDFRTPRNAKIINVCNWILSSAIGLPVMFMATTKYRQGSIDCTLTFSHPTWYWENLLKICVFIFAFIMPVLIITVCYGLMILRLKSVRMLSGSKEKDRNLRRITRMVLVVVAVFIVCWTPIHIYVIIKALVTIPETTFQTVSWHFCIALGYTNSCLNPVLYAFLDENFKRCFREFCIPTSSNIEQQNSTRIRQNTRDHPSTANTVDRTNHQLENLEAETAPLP
# [6] = target: T2, Progesterone receptor (Homo sapiens, UniProt P06401)
# T2 sequence (P06401 whole entry): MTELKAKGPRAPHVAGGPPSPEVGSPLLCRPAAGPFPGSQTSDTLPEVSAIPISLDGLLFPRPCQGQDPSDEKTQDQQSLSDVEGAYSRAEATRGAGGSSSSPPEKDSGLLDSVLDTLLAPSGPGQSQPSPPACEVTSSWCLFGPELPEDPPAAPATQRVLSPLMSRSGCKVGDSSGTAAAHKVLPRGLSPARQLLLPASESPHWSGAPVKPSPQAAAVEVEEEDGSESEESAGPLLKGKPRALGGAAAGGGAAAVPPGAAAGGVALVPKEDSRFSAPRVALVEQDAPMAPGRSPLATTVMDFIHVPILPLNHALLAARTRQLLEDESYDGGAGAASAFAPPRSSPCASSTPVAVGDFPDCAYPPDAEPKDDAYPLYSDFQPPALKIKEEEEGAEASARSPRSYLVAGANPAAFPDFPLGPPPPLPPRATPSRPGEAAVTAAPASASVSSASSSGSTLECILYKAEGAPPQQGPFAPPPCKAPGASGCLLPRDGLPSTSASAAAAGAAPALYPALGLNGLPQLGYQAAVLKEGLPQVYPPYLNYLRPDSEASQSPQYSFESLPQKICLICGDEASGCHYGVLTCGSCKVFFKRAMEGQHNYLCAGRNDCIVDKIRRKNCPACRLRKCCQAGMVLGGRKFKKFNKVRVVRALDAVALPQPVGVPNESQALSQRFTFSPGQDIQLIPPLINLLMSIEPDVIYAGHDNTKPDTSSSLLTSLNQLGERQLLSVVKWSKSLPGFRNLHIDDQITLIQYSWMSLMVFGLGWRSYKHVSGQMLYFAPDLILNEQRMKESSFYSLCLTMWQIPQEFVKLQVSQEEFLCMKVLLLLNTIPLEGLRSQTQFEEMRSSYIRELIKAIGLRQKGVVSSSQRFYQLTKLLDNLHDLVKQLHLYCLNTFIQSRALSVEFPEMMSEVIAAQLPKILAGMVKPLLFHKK
# [7] = target: T3, Prostaglandin G/H synthase 1 (Homo sapiens, UniProt P23219); assay type: functional
# T3 sequence (P23219 whole entry): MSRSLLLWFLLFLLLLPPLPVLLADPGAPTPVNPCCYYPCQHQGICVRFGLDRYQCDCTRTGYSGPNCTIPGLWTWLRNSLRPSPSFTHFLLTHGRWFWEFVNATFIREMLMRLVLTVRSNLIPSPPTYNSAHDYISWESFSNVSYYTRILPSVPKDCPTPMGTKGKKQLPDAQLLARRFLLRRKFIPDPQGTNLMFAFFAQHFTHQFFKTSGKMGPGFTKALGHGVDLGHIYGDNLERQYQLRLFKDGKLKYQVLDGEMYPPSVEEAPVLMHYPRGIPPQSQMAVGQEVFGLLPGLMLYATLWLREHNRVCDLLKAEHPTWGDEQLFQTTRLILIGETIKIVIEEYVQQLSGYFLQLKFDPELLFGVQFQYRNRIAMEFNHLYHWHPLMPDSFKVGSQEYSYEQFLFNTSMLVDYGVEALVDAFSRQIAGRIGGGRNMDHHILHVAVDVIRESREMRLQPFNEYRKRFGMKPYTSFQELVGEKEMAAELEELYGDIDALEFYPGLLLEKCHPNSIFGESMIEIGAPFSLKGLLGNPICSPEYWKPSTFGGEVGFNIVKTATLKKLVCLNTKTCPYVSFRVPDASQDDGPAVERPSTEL
# [8] = target: T3, Prostaglandin G/H synthase 1; assay type: functional; remark: listed apart in the source
# [9] = target: T4, Alpha-2B adrenergic receptor (Homo sapiens, UniProt P18089)
# T4 sequence (P18089 whole entry): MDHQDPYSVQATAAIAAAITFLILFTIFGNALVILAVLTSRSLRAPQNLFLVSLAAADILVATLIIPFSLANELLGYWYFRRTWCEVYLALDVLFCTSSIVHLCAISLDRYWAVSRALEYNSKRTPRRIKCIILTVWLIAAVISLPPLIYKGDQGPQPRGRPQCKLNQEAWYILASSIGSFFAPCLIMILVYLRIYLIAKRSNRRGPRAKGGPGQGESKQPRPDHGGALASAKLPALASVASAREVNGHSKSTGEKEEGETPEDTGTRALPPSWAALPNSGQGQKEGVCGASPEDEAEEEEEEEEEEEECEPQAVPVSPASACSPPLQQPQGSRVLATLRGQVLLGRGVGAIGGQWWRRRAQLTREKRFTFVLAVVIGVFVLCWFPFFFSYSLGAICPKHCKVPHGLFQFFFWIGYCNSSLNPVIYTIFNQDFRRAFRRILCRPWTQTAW
# [10] = target: Vasopressin V1a receptor (Homo sapiens, UniProt P37288)
# Sequence of Vasopressin V1a receptor (P37288 whole entry): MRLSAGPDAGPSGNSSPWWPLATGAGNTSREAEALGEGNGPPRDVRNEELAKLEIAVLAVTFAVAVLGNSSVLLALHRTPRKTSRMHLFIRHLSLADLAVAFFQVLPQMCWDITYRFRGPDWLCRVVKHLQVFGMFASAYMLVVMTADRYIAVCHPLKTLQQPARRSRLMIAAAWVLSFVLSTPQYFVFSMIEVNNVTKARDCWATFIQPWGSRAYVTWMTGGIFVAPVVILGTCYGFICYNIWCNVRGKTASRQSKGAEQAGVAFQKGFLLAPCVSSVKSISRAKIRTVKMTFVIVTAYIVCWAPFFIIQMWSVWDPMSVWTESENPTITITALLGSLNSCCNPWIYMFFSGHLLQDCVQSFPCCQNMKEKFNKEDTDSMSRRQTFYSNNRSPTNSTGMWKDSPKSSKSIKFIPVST
# [11] = target: T5, B2 bradykinin receptor (Homo sapiens, UniProt P30411)
# T5 sequence (P30411 whole entry): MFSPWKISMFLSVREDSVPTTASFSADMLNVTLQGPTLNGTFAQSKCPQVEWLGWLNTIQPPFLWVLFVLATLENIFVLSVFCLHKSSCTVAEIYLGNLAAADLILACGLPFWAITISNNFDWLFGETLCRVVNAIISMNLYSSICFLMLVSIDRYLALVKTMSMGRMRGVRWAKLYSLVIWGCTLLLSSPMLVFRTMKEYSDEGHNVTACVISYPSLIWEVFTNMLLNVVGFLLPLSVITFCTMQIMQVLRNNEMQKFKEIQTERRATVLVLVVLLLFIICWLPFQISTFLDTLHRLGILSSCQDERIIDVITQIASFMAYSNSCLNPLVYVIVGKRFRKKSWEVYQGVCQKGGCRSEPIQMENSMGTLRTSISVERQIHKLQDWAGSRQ
# [12] = target: Muscarinic acetylcholine receptor M3 (Homo sapiens, UniProt P20309)
# Sequence of Muscarinic acetylcholine receptor M3 (P20309 whole entry): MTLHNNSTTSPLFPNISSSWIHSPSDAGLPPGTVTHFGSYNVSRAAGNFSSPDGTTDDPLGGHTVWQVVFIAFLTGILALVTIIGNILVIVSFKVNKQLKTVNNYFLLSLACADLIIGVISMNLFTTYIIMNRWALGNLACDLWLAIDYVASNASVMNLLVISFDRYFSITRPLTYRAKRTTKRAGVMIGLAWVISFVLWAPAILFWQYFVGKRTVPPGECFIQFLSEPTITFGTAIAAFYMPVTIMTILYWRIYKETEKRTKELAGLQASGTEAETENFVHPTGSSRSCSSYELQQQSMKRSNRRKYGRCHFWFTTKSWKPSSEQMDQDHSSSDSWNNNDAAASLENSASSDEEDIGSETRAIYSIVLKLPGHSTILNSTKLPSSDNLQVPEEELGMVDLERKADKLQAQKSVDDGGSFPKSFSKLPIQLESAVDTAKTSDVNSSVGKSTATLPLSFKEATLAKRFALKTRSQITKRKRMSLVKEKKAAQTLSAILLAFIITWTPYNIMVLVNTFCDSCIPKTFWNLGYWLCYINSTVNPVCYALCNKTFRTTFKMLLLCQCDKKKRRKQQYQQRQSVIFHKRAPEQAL
# [13] = target: Histamine H1 receptor (Homo sapiens, UniProt P35367)
# Sequence of Histamine H1 receptor (P35367 whole entry): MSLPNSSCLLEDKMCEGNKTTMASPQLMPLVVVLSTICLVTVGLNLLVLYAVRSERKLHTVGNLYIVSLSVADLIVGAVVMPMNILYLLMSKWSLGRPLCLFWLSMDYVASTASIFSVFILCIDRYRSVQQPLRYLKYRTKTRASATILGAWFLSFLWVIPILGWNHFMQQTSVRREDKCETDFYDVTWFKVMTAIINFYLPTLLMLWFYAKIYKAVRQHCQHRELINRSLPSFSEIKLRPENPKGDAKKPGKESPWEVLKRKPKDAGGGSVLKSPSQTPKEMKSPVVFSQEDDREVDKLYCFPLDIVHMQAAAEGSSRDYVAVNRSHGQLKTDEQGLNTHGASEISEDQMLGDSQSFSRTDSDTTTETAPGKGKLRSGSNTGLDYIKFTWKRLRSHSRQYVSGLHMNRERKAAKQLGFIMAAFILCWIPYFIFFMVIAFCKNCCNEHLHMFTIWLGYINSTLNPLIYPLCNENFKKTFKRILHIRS
# [14] = target: T1, 5-hydroxytryptamine receptor 1A; assay type: functional, cell-based
# [15] = target: Sodium-dependent serotonin transporter (Homo sapiens, UniProt P31645)
# Sequence of Sodium-dependent serotonin transporter (P31645 whole entry): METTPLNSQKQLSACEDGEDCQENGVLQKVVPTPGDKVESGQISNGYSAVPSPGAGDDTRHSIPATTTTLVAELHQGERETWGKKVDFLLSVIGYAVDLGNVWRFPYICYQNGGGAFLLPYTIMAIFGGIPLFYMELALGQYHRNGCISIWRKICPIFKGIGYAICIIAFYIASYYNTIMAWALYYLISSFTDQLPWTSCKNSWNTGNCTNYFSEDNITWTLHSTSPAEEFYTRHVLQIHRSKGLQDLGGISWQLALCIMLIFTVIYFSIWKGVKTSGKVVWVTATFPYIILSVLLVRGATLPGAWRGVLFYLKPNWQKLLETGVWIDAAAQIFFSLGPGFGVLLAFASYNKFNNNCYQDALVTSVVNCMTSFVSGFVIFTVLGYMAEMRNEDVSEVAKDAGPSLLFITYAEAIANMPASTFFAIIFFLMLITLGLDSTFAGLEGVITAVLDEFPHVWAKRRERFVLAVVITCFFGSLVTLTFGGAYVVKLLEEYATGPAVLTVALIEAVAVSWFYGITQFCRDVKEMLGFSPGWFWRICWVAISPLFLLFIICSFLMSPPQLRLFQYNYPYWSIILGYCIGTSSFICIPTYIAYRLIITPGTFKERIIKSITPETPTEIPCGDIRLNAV
# [16] = target: T2, Progesterone receptor; assay type: functional
# Note: assay procedure not described here.
# Sequence of D(1A) dopamine receptor (P21728 whole entry): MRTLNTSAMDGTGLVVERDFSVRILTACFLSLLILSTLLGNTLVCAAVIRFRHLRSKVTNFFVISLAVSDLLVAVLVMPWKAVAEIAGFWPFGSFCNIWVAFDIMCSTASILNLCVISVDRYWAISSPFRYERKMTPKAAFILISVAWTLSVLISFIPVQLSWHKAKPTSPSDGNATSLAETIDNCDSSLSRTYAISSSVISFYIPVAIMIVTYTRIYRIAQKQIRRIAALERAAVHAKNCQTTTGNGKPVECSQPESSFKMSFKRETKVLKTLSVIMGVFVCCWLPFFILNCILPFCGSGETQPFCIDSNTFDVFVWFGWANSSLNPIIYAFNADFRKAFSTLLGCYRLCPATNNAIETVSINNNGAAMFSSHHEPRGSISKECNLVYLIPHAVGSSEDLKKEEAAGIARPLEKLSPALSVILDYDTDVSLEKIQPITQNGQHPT
# Sequence of Acetylcholinesterase (P22303 whole entry): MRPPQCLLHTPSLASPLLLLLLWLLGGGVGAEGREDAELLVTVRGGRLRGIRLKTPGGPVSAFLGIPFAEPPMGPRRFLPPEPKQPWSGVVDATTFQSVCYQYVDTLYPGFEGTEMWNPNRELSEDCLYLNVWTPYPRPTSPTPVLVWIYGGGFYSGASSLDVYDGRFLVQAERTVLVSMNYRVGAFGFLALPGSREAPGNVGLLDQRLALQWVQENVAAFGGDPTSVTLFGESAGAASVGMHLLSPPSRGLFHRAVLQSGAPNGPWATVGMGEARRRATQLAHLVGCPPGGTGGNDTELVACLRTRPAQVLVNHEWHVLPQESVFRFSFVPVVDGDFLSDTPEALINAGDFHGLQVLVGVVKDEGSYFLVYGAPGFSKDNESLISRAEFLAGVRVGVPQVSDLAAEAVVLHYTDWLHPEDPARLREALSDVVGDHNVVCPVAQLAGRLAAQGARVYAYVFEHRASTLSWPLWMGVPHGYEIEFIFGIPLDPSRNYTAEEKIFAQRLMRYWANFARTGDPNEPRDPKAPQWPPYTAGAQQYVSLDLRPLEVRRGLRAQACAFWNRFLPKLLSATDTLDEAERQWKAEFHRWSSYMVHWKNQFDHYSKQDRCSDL
SMILES,AC50 [1] [µM],AC50 [2] [µM],AC50 [3] [µM],AC50 [4] [µM],AC50 [5] [µM],AC50 [6] [µM],AC50 [7] [µM],AC50 [8] [µM],AC50 [9] [µM],AC50 [10] [µM],AC50 [11] [µM],AC50 [12] [µM],AC50 [13] [µM],AC50 [14] [µM],AC50 [15] [µM],AC50 [16] [µM]
O=C(O)[C@@H](S)[C@@H](S)C(=O)O,> 30,> 30,2.64,> 30,> 30,> 30,> 30,> 30,,,,,,,,
C=CC1=C(C(=O)O)N2C(=O)[C@@H](NC(=O)/C(=N\O)c3csc(N)n3)[C@H]2SC1,,,,,,,,,> 10,> 30,> 30,> 30,> 10,> 10,> 30,
O=C(O)COC(=O)Cc1ccccc1Nc1c(Cl)cccc1Cl [ACECLOFENAC],,,,,,,,,,> 30,> 30,,,> 10,,
NCCCNCCSP(=O)(O)O [AMIFOSTINE],,,,,,,,,,,> 30,,,> 30,,
NCCCCCC(=O)O [AMINOCAPROIC ACID],,,,,,,,,,,> 10,,,> 10,,> 10
CN1CC2c3ccccc3Oc3ccc(Cl)cc3C2C1 (stereo not given) [ASENAPINE],,,,,,,,,,> 30,,> 30,,0.0097,,> 30
CC(C)NCC(O)COc1ccc(CC(N)=O)cc1 (stereo not given) [ATENOLOL],,,,,,,,,,> 30,> 30,,,,,> 30
C[C@H](CS)C(=O)N1CCC[C@H]1C(=O)O [CAPTOPRIL],,,,,,,,,,,> 30,,,,,
O=C(Cc1cccs1)N[C@@H]1C(=O)N2C(C(=O)[O-])=C(C[n+]3ccccc3)CS[C@H]12 [CEPHALORIDINE],> 30,> 30,> 30,> 30,> 30,> 30,16.4,> 30,> 30,,,> 30,> 30,> 30,,
C[C@H](CCC(=O)O)[C@H]1CC[C@H]2[C@@H]3[C@H](O)C[C@@H]4C[C@H](O)CC[C@]4(C)[C@H]3CC[C@]12C [CHENODIOL],,,,,,,,,> 30,> 30,,> 30,> 30,> 30,,
CCCCCCCCCCCCCCCC(=O)OC[C@H](COP(=O)([O-])OCC[N+](C)(C)C)OC(=O)CCCCCCCCCCCCCCC [COLFOSCERIL PALMITATE],> 30,> 30,> 30,> 30,> 30,> 30,> 30,> 30,,,,,,,,
C[C@@H](CN1CC(=O)NC(=O)C1)N1CC(=O)NC(=O)C1 [DEXRAZOXANE],> 30,> 30,> 30,> 30,> 30,> 30,2.16,5.98,,,,,,,,
COC(=O)CCc1ccc(OCC(O)CNC(C)C)cc1 (stereo not given) [ESMOLOL],,,,,,,,,,,> 30,,,,,> 30
C[C@]12CCC(=O)C=C1CC[C@H]1[C@@H]3CC[C@](O)(C(=O)CO)[C@@]3(C)C[C@H](O)[C@@]12F [FLUDROCORTISONE],,,,,,,,,> 10,> 30,> 30,> 30,> 10,> 10,> 30,
O=c1[nH]cc(F)c(=O)[nH]1 [FLUOROURACIL],> 30,,> 30,> 30,> 30,> 30,> 30,> 30,,> 30,> 30,,,,,
CCOC(=O)Nc1ccc(NCc2ccc(F)cc2)nc1N [FLUPIRTINE],,,,,,,,,> 30,> 30,> 30,> 30,> 30,22,> 30,
CCN(CCO)CCCC(C)Nc1ccnc2cc(Cl)ccc12 (stereo not given) [HYDROXYCHLOROQUINE],,,,,,,,,,,> 10,,,> 10,,> 10
OCCOCCN1CCN(C(c2ccccc2)c2ccc(Cl)cc2)CC1 (stereo not given) [HYDROXYZINE],,,,,,,,,8,> 10,> 30,> 10,0.039,> 10,> 10,
O=C(c1ccccc1)c1ccc2n1CCC2C(=O)O (stereo not given) [KETOROLAC],,,,,,,,,,> 10,> 10,,,> 10,,> 10
Nc1nnc(-c2cccc(Cl)c2Cl)c(N)n1 [LAMOTRIGINE],,,,,,,,,,> 10,> 30,,,> 10,,
CC(=O)NC[C@H]1CN(c2ccc(N3CCOCC3)c(F)c2)C(=O)O1 [LINEZOLID],,,,,,,,,> 30,,> 30,> 30,> 30,> 30,,> 30
O=NN(CCCl)C(=O)NC1CCCCC1 [LOMUSTINE],> 30,> 30,> 30,> 30,> 30,> 30,> 30,> 30,,,,,,,,
CO[C@@]1(NC(=O)C(C(=O)O)c2ccc(O)cc2)C(=O)N2C(C(=O)O)=C(CSc3nnnn3C)CO[C@@H]21 (stereo not given in full) [MOXALACTAM],> 30,> 30,> 30,> 30,> 30,> 30,9.25,> 30,,,,,,,,
C#CCN(C)Cc1ccccc1 [PARGYLINE],> 30,> 30,> 30,> 30,> 30,> 30,> 30,> 30,> 30,,,> 30,> 30,,,
COc1cccc2c1C(=O)c1c(O)c3c(c(O)c1C2=O)C[C@@](O)(C(=O)CO)C[C@@H]3O[C@H]1C[C@H](N)[C@H](O[C@@H]2CCCCO2)[C@H](C)O1 [PIRARUBICIN],> 10,> 30,> 30,> 30,> 30,> 30,0.5,1.57,,,,,,,,
CCC1(c2ccccc2)C(=O)NCNC1=O [PRIMIDONE],,,,,,,,,,,> 10,,,> 10,,> 10
